Columns and labels:
[1] = test system: MCL1 protein in MDAMB468 cells; test: Western blot of BCL2 family proteins, MDAMB468; format: cell-based, human; settings: 50 nM or 100 nM, 24 hours
Experimental: Cytotoxic cancer cell lines HCC70 and TOV21G, and cytostatic cancer cell lines T47D and COV318 were seeded in wells of a six-well dish at a density of 1×10^6 cells/well and allowed to adhere overnight. Cells were then treated with 50 nM of Compound 1 for 16 or 24 hours, or with DMSO (0 hours) representing a negative control. Cells were harvested and placed on ice, and resuspended in RIPA lysis buffer supplemented with protease and phosphatase inhibitors. Clarified lysates prepared with 4×LSD running buffer and boiled at 95° C. for 5 minutes. Equivalent amounts of sample (10 μg total protein) were run on a 4-12% Bis-Tris gel and transferred to a PDVF membrane for Western blotting using standard Western blotting protocols. Membranes were blocked with Licor TBS blocking buffer then probed with antibodies for BCL-XL, BCL-2, MCL1, BID, and GAPDH visualized using and Odyssey imager (FIGS. 23A and 23D).
In a similar experiment, TNBC breast cancer cell lines HCC70, MDAMB468, MDAMB453 and CAL-120 were grown as described above and treated with DMSO, 50 nM Compound 1 or 100 nM Compound 1 for 24 hours. Protein samples were prepared as described above for Western blotting using antibodies specific for the indicated proteins in FIG. 29A. […]

MDA-MB-468 cells = test: Growth rate (GR) inhibition, Cell Titer Glo 2.0, MDA-MB-468; format: cell-based, human; settings: concentrations greater than 100 nM, 72 hours
Experimental: (§1) To determine the effect of Compound 1 on the growth of TNBC cancer cells, four different human TNBC cell lines were used—HCC70, MDA-MB-468, MDA-MB-453 and CAL120. Cells from each cell line were plated separately at 50,000 cells/mL (100 uL per well) in a black-walled 96 well plate and allowed to adhere overnight. In parallel, cells were plated in a separate day 0 plate to measure the number of cells present upon compound addition. The next day, Compound 1 was added to the wells with an HP 300e compound dispenser in a 10-point serial dilution and cells incubated for 72 hours. On the same day Cell Titer Glo 2.0 reagent was added to the day 0 plate, and the luminescence measured with an Envision plate reader per manufacture protocol. After 72 hours Cell Titer Glo 2.0 reagent was added to the plates and the luminescence measured. GR curves were calculated as follows: […]
(§2) wherein x(c) is the Compound 1 treatment luminescence); x0 is the average Day 0 luminescence); and xctrl is the average DMSO treatment luminescence, and graphed using Graph Pad Prism. A GR value of 1 indicates no growth inhibition; GR values between 0 and 1 indicate partial growth inhibition; a GR value of 0 indicates cytostasis (no change from baseline); GR values less than 0 indicate cytotoxicity (cell number less than baseline); a GR value of −1 indicates complete cell loss.

HCC70 xenografts = test: Subcutaneous HCC70 xenograft, tumor volume; format: in vivo, mouse; settings: 40 mg/kg i.v. twice weekly (BIW), vehicle: increase in tumor volume
Experimental: Subcutaneous HCC70 xenografts were established in BALC/c nude mice at ChemPartner (Shanghai, China). Each mouse was inoculated subcutaneously in the right flank with 5×10^6 HCC70 cells (ATCC, CAT #: CRL-2315) in 0.2 ml of a 1:1 mixture of base medium and Matrigel. Tumor sizes were measured in two dimensions using a caliper, and the volumes were expressed in mm^3 using the formula: V=0.5 a×b^2 where a and b are the longest and shortest diameters of the tumor, respectively. Compound 1 treatment was started when the average tumor size reached 181 mm^3.
Compound 1 was formulated in w/v 20% Captisol (pH 4-6) and administered by i.v. twice weekly (BIW) at a final dose of 40 mg/kg in a 10 ml/kg volume. Mice in the vehicle arm were given the same dosing schedules, volumes, and formulations, but lacking Compound 1. Tumor volumes were measured twice weekly over the course of the study.

HCC70 cells = test: Growth rate (GR) inhibition, Cell Titer Glo 2.0, HCC70; format: cell-based, human; settings: concentrations greater than 100 nM, 72 hours
Experimental: as §1, §2

In the case of `CN(C)C/C=C/C(=O)Nc1ccc(C(=O)N[C@@]2(C)CCC[C@@H](Nc3ncc(Cl)c(-c4c[nH]c5ccccc45)n3)C2)nc1` [Compound 1, N-((1S,3R)-3-(5-chloro-4-(1H-indol-3-yl)pyrimidin-2-ylamino)-1-methylcyclohexyl)-5-((E)-4-(dimethylamino)but-2-enamido)picolinamide], the “MCL1 protein level (Western blot)” value [1] is reported as “downregulated”, the “Inhibition of growth (GR curve)” value (MDA-MB-468 cells) is reported as “almost complete inhibition of growth” and the Tumor volume (HCC70 xenografts) is reported as “reduction in tumor volume”. The “Inhibition of growth (GR curve)” value (HCC70 cells) was “almost complete inhibition of growth”.

From patent US20200113902A1, “COMPOSITIONS AND METHODS FOR TREATING CANCERS WITH COVALENT INHIBITORS OF CYCLIN-DEPENDENT KINASE 7 (CDK7)” (Syros Pharmaceuticals, Inc., priority 2017, published 2020)
